Experiments:
Test in all cases: Test F preemergence
Details in all cases: 21 days, scale 0 to 100
foxtail, green = assay type: in vivo, Setaria viridis
Text: (§1) Seeds of plant species selected from bermudagrass (Cynodon dactylon), surinam grass (Brachiaria decumbens), large (Lg) crabgrass (Digitaria sanguinalis), crabgrass, naked (naked crabgrass, Digitaria nuda), foxtail, green (green foxtail, Setaria viridis), johnsongrass (Sorghum halepense), kochia (Kochia scoparia), morningglory (pitted morningglory, Ipomoea lacunosa), nutsedge, purple (purple nutsedge, Cyperus rotundus), ragweed (common ragweed, Ambrosia elatior), mustard, black (black mustard, Brassica nigra), guineagrass (Panicum maximum), dallisgrass (Paspalum dilatatum), barnyardgrass (Echinochloa crus-galli), sandbur (southern sandbur, Cenchrus echinatus), sowthistle (common sowthistle, Sonchus oleraceous), Italian ryegrass (Lolium multiflorum), signalgrass (broadleaf signalgrass, Brachiaria platyphylla), dayflower (Virginia (VA) dayflower, Commelina virginica), bluegrass (annual bluegrass, Poa annua), quackgrass (Elytrigia repens), mallow (common mallow, Malva sylvestris), buckwheat, wild (wild buckwheat, Polygonum convolvulus), leafy spurge (Euphorbia esula), chickweed (common chickweed, Stellaria media), wild poinsettia (Euphorbia heterophylla), and pigweed (Amaranthus retroflexus) were planted into a blend of loam soil and sand and treated preemergence with test chemicals formulated in a non-phytotoxic solvent mixture which included a surfactant.
(§2) Treated plants and controls were maintained in a greenhouse for 21 days, after which time all species were compared to controls and visually evaluated. Plant response ratings, summarized in Table F, are based on a scale of 0 to 100 where 0 is no effect and 100 is complete control. A dash (-) response means no test result.

dallisgrass = assay type: in vivo, Paspalum dilatatum
Text: as §1, §2

signalgrass = assay type: in vivo, Brachiaria platyphylla
Text: as §1, §2

dayflower = assay type: in vivo, Commelina virginica
Text: as §1, §2

mallow = assay type: in vivo, Malva sylvestris
Text: as §1, §2

Compound | Plant response rating, Foxtail, Green (foxtail, green; 16 g ai/ha) | Plant response rating, Foxtail, Green (foxtail, green; 31 g ai/ha) | Plant response rating, Foxtail, Green (foxtail, green; 62 g ai/ha) | Plant response rating, Foxtail, Green (foxtail, green; 125 g ai/ha) | Plant response rating, Foxtail, Green (foxtail, green; 250 g ai/ha) | Plant response rating, Dallisgrass (dallisgrass; 16 g ai/ha) | Plant response rating, Dallisgrass (dallisgrass; 31 g ai/ha) | Plant response rating, Dallisgrass (dallisgrass; 62 g ai/ha) | Plant response rating, Dallisgrass (dallisgrass; 125 g ai/ha) | Plant response rating, Dallisgrass (dallisgrass; 250 g ai/ha) | Plant response rating, Signalgrass (signalgrass; 16 g ai/ha) | Plant response rating, Signalgrass (signalgrass; 31 g ai/ha) | Plant response rating, Signalgrass (signalgrass; 62 g ai/ha) | Plant response rating, Signalgrass (signalgrass; 125 g ai/ha) | Plant response rating, Signalgrass (signalgrass; 250 g ai/ha) | Plant response rating, Dayflower, VA (dayflower; 16 g ai/ha) | Plant response rating, Dayflower, VA (dayflower; 31 g ai/ha) | Plant response rating, Dayflower, VA (dayflower; 62 g ai/ha) | Plant response rating, Dayflower, VA (dayflower; 125 g ai/ha) | Plant response rating, Dayflower, VA (dayflower; 250 g ai/ha) | further results
N#Cc1cccc(Oc2ncc(Cl)cn2)c1-n1cc(OC(F)F)cn1 [Compound 97] | 75 | 100 | 100 | 100 | 100 | 75 | 98 | 100 | 100 | 100 | 25 | 90 | 85 | 100 | 100 | 35 | 80 | 98 | 98 | 100 | Plant response rating, Mallow (mallow; 16 g ai/ha): 30; Plant response rating, Mallow (mallow; 31 g ai/ha): 75; Plant response rating, Mallow (mallow; 62 g ai/ha): 98; Plant response rating, Mallow (mallow; 125 g ai/ha): 100; Plant response rating, Mallow (mallow; 250 g ai/ha): 100
N#Cc1cccc(Oc2ncc(F)cn2)c1-n1cc(C(F)(F)F)cn1 [Compound 79, 3-[(5-fluoro-2-pyrimidinyl)oxy]-2-[4-(trifluoromethyl)-1H-pyrazol-1-yl]benzonitrile] | 95 | 100 | 100 | 100 | 100 | 65 | 98 | 100 | 100 | 100 | 98 | 100 | 100 | 100 | 100 | 95 | 98 | 100 | 100 | 100 | Plant response rating, Mallow (mallow; 16 g ai/ha): 98; Plant response rating, Mallow (mallow; 31 g ai/ha): 100; Plant response rating, Mallow (mallow; 62 g ai/ha): 100; Plant response rating, Mallow (mallow; 125 g ai/ha): 100; Plant response rating, Mallow (mallow; 250 g ai/ha): 100
